Common to all, as to assay: growth of human tumour cells (NCI), 48 h
Assay [1] has as its system A498 renal.
For assay [2], the system named is ACHN renal.
In assay [3] the test system is BT-549 breast.
For assay [4], the system named is HCT-15 colon.
The test system of assay [5] is K-562 leukemia.
For assay [6], the system named is KM12 colon.
For assay [7], the system named is MALME-3M melanoma.
The subject of assay [8] is MDA-MB-435.
Assay [9] relates to MOLT-4 leukemia.
Assay [10] deals with OVCAR-4 ovarian.
The test system of assay [11] is PC-3 prostate.
The subject of assay [12] is SF-539 CNS.
For assay [13], the system named is SK-MEL-2 melanoma.
In assay [14] the test system is SK-MEL-28 melanoma.
Assay [15] deals with SK-OV-3 ovarian.
For assay [16], the system named is SNB-75 CNS.
The subject of assay [17] is T-47D breast.
The test system of assay [18] is TK-10 renal.
Assay [19] relates to U251 CNS.
Assay [20] deals with SR leukemia.

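The compound was tested at five concentrations on cells cultured in 96-well plates, with a 48-hour exposure period. TGI marks complete inhibition of growth.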

As for `Cn1ccnc1SC(F)(F)c1nc2ccccc2o1`, the TGI in assay [1], in [2], in assay [3], in [4], in assay [5] and in assay [6] was over 100 µM each time. In addition, the TGI in [7], in [8], in [9], in assay [10], in assay [11] and in assay [12] was over 100 µM in each case. In addition, the TGI in assay [13], in assay [14], in assay [15], in assay [16], in assay [17] and in assay [18] was over 100 µM in each case. In addition, the TGI in [19] is over 100 µM.

With `Nc1nc(N)nc(-c2cnc3ccccc3c2)n1`, the TGI in assay [1], in assay [2], in [3], in [4], in [5] and in assay [6] was over 100 µM throughout. For the same compound, the TGI in [7], in assay [8], in [9], in assay [11], in assay [12] and in assay [13] was over 100 µM in each case. Further, the TGI in assay [14], in [15], in [16], in [20], in [17] and in assay [18] was over 100 µM in each case. In assay [19], this compound came in with a TGI of over 100 µM.

For `CN(C)S(=O)(=O)n1ccnc1`, the TGI in assay [1], in assay [2], in assay [3], in assay [4], in assay [5] and in [6] was over 100 µM in each case. For the same compound, the TGI in assay [7], in [8], in assay [9], in assay [10], in [11] and in assay [12] was over 100 µM in each case. Further, the TGI in assay [13], in assay [14], in [15], in assay [16], in [17] and in assay [18] was over 100 µM throughout. Also, the TGI in assay [19] was over 100 µM.

As to `CCOP(=O)(OCC)/C(=C/c1ccccc1)CC(C)=O`, the TGI in assay [1], in assay [2], in [3], in [4], in [5] and in assay [6] was over 100 µM in each case. The TGI in assay [7], in assay [8], in [9], in [10], in assay [11] and in [12] was over 100 µM each time. The TGI in assay [13], in assay [14], in assay [15], in assay [16], in assay [17] and in [18] was over 100 µM in each case. The TGI in assay [19] is over 100 µM.

`Nc1cc(OCc2ccccc2)c(OCc2ccccc2)cc1C=O`: the TGI was 44.2 µM in assay [1]; 93.5 µM in assay [2]; 37.3 µM in assay [3]; over 100 µM in assay [4]; over 100 µM in assay [5]; 92.2 µM in assay [6]. Besides, the TGI was over 100 µM in assay [8]; over 100 µM in assay [9]; over 100 µM in assay [11]; 31.7 µM in assay [12]; over 100 µM in [13]; over 100 µM in [14]. The TGI in [15] is over 100 µM; in assay [16], over 100 µM; in assay [20] it was over 100 µM; in assay [17], over 100 µM; in [18], 67.8 µM; in [19], 93.9 µM.

As for `NC(=S)SC1=NNC2(C(=O)N1)c1ccccc1-c1ccccc12`, the TGI in assay [2], in [3], in [4], in assay [6], in [7] and in assay [8] was over 10 µM each time. Moreover, the TGI in [10], in assay [11], in assay [12], in assay [14], in assay [15] and in assay [16] was over 10 µM in each case. Besides, the TGI in assay [20], in [17] and in assay [18] was over 10 µM each time.

Regarding `Nc1ccc(S(=O)(=O)Nc2nc3ccccc3nc2Nc2ccc(S(N)(=O)=O)cc2)cc1`, the TGI was over 100 µM in assay [2]; 62.1 µM in assay [3]; over 100 µM in assay [4]; over 100 µM in assay [5]; over 100 µM in assay [6]; 97.4 µM in assay [7]. Further, the TGI in [8] was over 100 µM; in assay [9], 93.3 µM; in assay [10], 49.7 µM; in [11], over 100 µM; in assay [12], over 100 µM; in assay [13], 45.6 µM. For the same compound, the TGI in assay [14] was over 100 µM; in assay [15], over 100 µM; in assay [16], 69.6 µM; in [20] it was over 100 µM; in [17] it was over 100 µM; in assay [18], over 100 µM. The same compound gave a TGI in [19] of over 100 µM.

Turning to `Nc1sccc1S(=O)(=O)c1ccsc1N`, the TGI in assay [1], in assay [2], in assay [3], in assay [4], in assay [6] and in assay [7] was over 100 µM each time. The TGI in assay [8], in assay [9], in [10], in assay [11], in assay [12] and in assay [13] was over 100 µM throughout. Besides, the TGI in [14], in assay [15], in assay [16], in assay [17], in [18] and in assay [19] was over 100 µM throughout.

On to `CCN(CC)CCC(=O)c1ccc(Oc2ccc(C)cc2)cc1`, for which the TGI in assay [2] is 38.1 µM; in assay [3] it was 32.7 µM; in assay [4], 33.8 µM; in assay [5], over 100 µM; in [6], 23.9 µM; in [7], 33.7 µM. In addition, the TGI in [8] was 32 µM; in assay [9], 60.7 µM; in assay [10] it was 55.3 µM; in [11], 38.2 µM; in [12] it was 33.1 µM; in assay [13], over 100 µM. Besides, the TGI was 30.5 µM in assay [14]; 88.7 µM in [15]; 35.7 µM in [16]; over 100 µM in [20]; 40.2 µM in assay [17]; 32.5 µM in [18]. Besides, the TGI in assay [19] was 30.7 µM.

Consider `CCOC(=O)C(Cc1ccc(OC(=O)c2ccc(OC)cc2OC)cc1)NC(=O)C(F)(F)F` (configuration not stated), for which the TGI in assay [1] is 31.6 µM; in [2], 30.9 µM; in assay [3] it was over 100 µM; in assay [4], 43.3 µM; in [5], over 100 µM; in [6], 72.8 µM. For the same compound, the TGI in [7] is 59.9 µM; in [8] it was 34.9 µM; in [9], over 100 µM; in assay [10], 55.8 µM; in assay [11], 48.1 µM; in [12], 54.4 µM. Moreover, the TGI in assay [13] is 57.5 µM; in assay [15] it was over 100 µM; in [16] it was 33.1 µM; in assay [17], 61.6 µM; in assay [18], 42.7 µM; in assay [19], over 100 µM.

For `CCOC(=O)CCC(NC(=O)N1CCN(c2c(C)nc(C)[nH]c2=O)CC1)C(=O)OCC` (configuration not stated), the TGI in [1], in assay [2], in [3], in assay [4], in assay [5] and in assay [6] was over 100 µM each time. The TGI in assay [7], in assay [8], in [9], in assay [10], in [11] and in [12] was over 100 µM throughout. Also, the TGI in [14], in [15], in [20], in assay [17], in [18] and in assay [19] was over 100 µM each time.

For the compound `COc1ccc2cc(-c3ccc(OC)c(OC)c3)c(=O)oc2c1`, the TGI in [1], in [2], in assay [3], in [4], in assay [5] and in assay [6] was over 100 µM each time. The TGI in [7], in assay [8], in assay [9], in assay [10], in [11] and in [12] was over 100 µM in each case. Besides, the TGI in assay [13], in [14], in assay [15], in [20], in assay [17] and in assay [18] was over 100 µM in each case. For the same compound, in assay [19], the TGI was over 100 µM.

Regarding `Cc1cc(C)c2c(=O)n(CN3CCN(c4ccccc4)CC3)sc2n1`, the TGI is over 100 µM in assay [1]; 35.2 µM in assay [2]; over 100 µM in assay [3]; 50.7 µM in assay [4]; over 100 µM in [5]; over 100 µM in assay [6]. In addition, the TGI in [7] is over 100 µM; in assay [8], over 100 µM; in [9] it was 58.7 µM; in assay [10], over 100 µM; in [11], 40.5 µM; in [12] it was 37.5 µM. Moreover, the TGI in assay [13] is 33.9 µM; in assay [14], over 100 µM; in assay [15], over 100 µM; in assay [16], 42.7 µM; in assay [17] it was 33.8 µM; in assay [18], over 100 µM. Moreover, the TGI in assay [19] was 56.2 µM.

Take `NC(N)=NS(=O)(=O)c1ccc(Nc2c3ccccc3nc3ccc(C(=O)Nc4ccc(S(N)(=O)=O)cc4)cc23)cc1`: the TGI in [2], in [3], in assay [4], in assay [5], in assay [6] and in assay [7] was over 100 µM in each case. Further, the TGI in assay [8], in assay [9], in assay [10], in [11], in [12] and in assay [13] was over 100 µM each time. For the same compound, the TGI in assay [14], in assay [15], in assay [16], in [20], in assay [17] and in assay [18] was over 100 µM in each case. The TGI in [19] was over 100 µM.

As for `Cc1cc2c(cc1Cl)SC(NN(C)C)=NS2(=O)=O`, the TGI in assay [1], in assay [2], in [3], in assay [4], in assay [5] and in assay [6] was over 10 µM each time. Further, the TGI in assay [7], in [8], in assay [9], in assay [10], in assay [11] and in assay [12] was over 10 µM in each case. Moreover, the TGI in assay [13], in [14], in assay [15], in assay [16], in assay [17] and in assay [18] was over 10 µM in each case. In assay [19], this compound gave a TGI of over 10 µM.

The values are drawn from PubChem BioAssay (NCI).
